Measured values: ChEMBL document CHEMBL4613324, “Design, Synthesis, and Evaluation of a Series of Novel Super Long-Acting DPP-4 Inhibitors for the Treatment of Type 2 Diabetes” (J Med Chem, 2020)

What was measured:
[1] = Clearance in ICR mouse at 0.5 mg/kg, iv measured after 0.0833 to 120 hrs by LC-MS-MS analysis; assay type: ADME, organism-based; details: in vivo
[2] = AUC (0 to t) in ICR mouse at 2 mg/kg, po measured after 0.0833 to 120 hrs by LC-MS-MS analysis; assay type: ADME, organism-based; parameters: time upper 120 hr, time lower 0.083 hr, dose 2 mg/kg, route oral; details: in vivo
[3] = Half life in ICR mouse at 0.5 mg/kg, iv measured after 0.0833 to 120 hrs by LC-MS-MS analysis; assay type: ADME, organism-based; details: in vivo
[4] = Oral bioavailability in ICR mouse at 2 mg/kg measured after 0.0833 to 120 hrs by LC-MS-MS analysis; assay type: ADME, organism-based; details: in vivo
[5] = target: Dipeptidyl peptidase 4 (Mus musculus) (UniProt P28843); assay: Ex-vivo inhibition of DPP4 in plasma isolated from ob/ob mouse treated at 3 to 30 mg/kg, po measured after 2 to 72 hrs by fluorescence based assay; assay type: functional, organism-based
Sequence of Dipeptidyl peptidase 4 (Mus musculus) (P28843 whole entry, looked up): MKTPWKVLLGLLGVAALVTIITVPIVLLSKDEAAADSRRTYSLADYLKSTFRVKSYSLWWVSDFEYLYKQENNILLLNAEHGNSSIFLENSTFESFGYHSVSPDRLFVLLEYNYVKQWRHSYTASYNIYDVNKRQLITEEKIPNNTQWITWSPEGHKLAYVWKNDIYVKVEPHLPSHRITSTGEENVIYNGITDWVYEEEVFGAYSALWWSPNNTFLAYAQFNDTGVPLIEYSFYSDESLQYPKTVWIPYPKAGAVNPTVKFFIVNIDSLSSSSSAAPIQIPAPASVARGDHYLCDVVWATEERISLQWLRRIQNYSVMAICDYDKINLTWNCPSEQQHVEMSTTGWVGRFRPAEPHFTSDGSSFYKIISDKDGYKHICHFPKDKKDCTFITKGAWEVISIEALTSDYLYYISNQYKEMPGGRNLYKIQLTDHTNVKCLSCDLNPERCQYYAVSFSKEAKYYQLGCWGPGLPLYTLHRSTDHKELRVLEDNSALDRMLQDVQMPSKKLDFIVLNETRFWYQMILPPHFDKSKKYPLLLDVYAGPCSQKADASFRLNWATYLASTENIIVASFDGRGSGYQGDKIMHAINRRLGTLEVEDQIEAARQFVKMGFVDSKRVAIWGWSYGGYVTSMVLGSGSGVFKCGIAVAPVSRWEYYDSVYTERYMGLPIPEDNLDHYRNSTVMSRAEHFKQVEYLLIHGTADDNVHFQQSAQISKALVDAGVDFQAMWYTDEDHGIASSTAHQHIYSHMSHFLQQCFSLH

Rhesus monkey = assay: Ex-vivo inhibition of DPP4 in plasma isolated from rhesus monkey treated at 10 mg/kg, ig after 12 days by fluorescence based assay relative to control; assay type: functional; details: Macaca mulatta, po, 288 h
[6] = target: Voltage-gated inwardly rectifying potassium channel KCNH2 (Homo sapiens, UniProt Q12809); assay: Inhibition of human ERG by manual whole-cell patch-clamp assay
Sequence of Voltage-gated inwardly rectifying potassium channel KCNH2 (Q12809 whole entry): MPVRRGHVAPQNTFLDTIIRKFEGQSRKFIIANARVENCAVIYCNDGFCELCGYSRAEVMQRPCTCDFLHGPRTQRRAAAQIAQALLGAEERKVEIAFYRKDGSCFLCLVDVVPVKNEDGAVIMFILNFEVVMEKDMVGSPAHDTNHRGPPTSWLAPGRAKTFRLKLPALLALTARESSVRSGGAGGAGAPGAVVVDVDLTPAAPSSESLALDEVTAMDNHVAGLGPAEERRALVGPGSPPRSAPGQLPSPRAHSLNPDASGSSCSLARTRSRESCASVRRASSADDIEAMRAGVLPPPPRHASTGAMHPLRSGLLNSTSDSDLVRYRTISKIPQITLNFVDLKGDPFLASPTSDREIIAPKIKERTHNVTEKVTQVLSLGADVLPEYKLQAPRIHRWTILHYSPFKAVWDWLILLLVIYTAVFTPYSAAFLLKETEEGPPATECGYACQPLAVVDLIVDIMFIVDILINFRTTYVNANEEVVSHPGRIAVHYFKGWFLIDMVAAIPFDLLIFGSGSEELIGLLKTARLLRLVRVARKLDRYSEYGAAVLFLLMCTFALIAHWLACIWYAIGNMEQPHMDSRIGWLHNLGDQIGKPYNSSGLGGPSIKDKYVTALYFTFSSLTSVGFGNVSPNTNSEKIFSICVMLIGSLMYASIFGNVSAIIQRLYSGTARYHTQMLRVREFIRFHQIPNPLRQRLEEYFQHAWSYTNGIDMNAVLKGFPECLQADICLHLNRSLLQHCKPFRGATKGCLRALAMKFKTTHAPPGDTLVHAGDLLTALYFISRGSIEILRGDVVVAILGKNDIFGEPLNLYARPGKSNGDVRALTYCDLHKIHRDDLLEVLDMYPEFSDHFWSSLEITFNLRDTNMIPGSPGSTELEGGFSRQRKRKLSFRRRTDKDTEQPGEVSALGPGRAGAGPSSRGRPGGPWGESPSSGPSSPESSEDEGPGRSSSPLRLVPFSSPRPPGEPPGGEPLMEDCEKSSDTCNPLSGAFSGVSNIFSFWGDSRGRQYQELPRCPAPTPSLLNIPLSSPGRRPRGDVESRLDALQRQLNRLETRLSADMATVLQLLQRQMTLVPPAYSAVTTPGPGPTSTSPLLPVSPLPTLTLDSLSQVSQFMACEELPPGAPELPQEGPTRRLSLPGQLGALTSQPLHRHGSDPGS

CYP2C9 = CYP2C9 (Homo sapiens, UniProt P11712); assay: Stability assessed as recombinant human CYP2C9 mediated compound metabolism by measuring parent compound remaining after 30 mins relative to control; assay type: ADME; details: read-out: Stability
Sequence of CYP2C9 (P11712 whole entry): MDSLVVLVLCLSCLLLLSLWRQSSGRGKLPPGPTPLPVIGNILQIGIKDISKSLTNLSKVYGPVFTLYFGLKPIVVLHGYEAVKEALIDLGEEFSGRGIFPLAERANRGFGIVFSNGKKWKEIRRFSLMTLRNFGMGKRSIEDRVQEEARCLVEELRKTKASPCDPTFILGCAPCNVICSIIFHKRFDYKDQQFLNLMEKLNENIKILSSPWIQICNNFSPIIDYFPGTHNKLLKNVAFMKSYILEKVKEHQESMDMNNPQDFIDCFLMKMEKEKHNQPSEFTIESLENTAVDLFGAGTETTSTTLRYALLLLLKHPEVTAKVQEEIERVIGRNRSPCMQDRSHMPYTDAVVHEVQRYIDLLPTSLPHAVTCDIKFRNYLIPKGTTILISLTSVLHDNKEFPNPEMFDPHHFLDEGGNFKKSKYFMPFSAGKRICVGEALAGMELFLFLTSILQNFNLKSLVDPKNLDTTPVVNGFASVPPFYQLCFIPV

CYP2E1 = CYP2E1 (Homo sapiens, UniProt P05181); assay: Stability assessed as recombinant human CYP2E1 mediated compound metabolism by measuring parent compound remaining after 30 mins relative to control; assay type: ADME; details: read-out: Stability
Sequence of CYP2E1 (P05181 whole entry): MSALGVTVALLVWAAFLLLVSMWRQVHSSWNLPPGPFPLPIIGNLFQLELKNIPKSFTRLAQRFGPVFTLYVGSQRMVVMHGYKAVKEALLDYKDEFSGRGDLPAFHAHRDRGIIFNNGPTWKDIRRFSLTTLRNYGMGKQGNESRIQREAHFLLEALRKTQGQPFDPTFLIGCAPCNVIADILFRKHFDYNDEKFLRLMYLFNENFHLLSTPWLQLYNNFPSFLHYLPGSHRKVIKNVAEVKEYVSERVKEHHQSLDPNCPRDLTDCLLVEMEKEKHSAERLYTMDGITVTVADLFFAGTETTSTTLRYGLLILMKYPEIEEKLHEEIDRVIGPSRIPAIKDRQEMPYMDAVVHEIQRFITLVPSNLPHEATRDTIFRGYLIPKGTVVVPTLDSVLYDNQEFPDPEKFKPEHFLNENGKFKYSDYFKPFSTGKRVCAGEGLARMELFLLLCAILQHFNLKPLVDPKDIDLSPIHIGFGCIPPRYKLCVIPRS

CYP3A4 = CYP3A4 (Homo sapiens, UniProt P08684); assay: Stability assessed as recombinant human CYP3A4 mediated compound metabolism by measuring parent compound remaining after 30 mins relative to control; assay type: ADME; details: read-out: Stability
Sequence of CYP3A4 (P08684 whole entry): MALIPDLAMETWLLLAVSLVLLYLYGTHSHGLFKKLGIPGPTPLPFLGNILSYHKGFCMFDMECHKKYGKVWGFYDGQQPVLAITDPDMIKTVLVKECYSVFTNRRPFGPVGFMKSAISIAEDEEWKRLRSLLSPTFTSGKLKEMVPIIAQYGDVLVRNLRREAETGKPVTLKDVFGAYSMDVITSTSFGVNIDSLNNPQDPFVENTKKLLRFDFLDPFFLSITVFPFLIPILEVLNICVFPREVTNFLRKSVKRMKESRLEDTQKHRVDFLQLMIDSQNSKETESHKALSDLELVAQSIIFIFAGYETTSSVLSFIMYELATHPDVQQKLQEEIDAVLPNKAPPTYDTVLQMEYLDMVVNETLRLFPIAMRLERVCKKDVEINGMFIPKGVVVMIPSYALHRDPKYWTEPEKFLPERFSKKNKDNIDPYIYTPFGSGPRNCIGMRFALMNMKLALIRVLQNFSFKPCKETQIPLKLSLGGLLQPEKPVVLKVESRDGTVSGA

Cytochrome P450 1A2 [7] = target: T1, Cytochrome P450 1A2 (Homo sapiens, UniProt P05177); assay: (§1) Inhibition of recombinant human CYP1A2; assay type: ADME
T1 sequence (P05177 whole entry): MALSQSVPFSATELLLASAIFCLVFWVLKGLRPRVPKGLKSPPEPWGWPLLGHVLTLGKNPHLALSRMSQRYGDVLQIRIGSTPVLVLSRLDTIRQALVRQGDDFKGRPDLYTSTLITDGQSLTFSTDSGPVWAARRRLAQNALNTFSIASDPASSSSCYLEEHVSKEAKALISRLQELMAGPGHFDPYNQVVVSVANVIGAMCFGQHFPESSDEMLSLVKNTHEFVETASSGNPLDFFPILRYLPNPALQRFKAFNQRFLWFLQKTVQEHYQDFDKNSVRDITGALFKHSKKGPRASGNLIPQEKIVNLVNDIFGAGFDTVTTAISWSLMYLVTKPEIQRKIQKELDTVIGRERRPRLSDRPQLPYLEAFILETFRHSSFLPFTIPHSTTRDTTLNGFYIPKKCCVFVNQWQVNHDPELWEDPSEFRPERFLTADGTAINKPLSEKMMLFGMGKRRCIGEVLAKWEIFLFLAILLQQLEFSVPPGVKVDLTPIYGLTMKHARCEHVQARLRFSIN

Cytochrome P450 2A6 [8] = target: T2, Cytochrome P450 2A6 (Homo sapiens, UniProt P11509); assay: (§2) Inhibition of recombinant human CYP2A6; assay type: ADME
T2 sequence (P11509 whole entry): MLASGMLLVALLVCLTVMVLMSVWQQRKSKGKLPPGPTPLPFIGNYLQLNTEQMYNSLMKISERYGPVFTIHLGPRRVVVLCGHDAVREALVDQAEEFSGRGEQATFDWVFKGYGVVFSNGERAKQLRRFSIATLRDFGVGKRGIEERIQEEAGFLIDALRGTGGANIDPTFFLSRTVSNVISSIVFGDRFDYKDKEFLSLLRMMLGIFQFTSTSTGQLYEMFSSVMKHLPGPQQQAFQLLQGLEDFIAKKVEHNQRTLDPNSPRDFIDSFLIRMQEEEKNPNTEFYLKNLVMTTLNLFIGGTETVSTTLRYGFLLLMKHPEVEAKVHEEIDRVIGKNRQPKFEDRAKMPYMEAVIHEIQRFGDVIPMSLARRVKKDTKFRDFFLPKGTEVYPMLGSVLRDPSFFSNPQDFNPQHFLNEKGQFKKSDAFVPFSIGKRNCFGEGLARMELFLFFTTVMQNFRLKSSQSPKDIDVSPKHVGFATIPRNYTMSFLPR

Cytochrome P450 2B6 [9] = target: T3, Cytochrome P450 2B6 (Homo sapiens, UniProt P20813); assay: (§3) Inhibition of recombinant human CYP2B6; assay type: ADME
T3 sequence (P20813 whole entry): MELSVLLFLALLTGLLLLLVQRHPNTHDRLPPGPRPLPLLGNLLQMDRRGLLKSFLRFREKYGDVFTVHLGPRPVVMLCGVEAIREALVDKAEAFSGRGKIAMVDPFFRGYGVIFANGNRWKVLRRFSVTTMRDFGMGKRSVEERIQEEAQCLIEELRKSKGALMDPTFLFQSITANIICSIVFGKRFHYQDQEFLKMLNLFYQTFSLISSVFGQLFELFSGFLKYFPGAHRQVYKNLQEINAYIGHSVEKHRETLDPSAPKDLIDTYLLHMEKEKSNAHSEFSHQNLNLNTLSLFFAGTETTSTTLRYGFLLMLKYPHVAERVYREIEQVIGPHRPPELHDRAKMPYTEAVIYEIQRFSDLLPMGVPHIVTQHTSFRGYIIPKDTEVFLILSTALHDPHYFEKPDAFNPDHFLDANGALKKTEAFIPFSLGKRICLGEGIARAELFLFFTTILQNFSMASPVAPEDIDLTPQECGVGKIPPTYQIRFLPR

Cytochrome P450 2C9 = Cytochrome P450 2C9 (Homo sapiens, UniProt P11712); assay: Inhibition of recombinant human CYP2C9; assay type: ADME
Cytochrome P450 2C19 = Cytochrome P450 2C19 (Homo sapiens, UniProt P33261); assay: Inhibition of recombinant human CYP2C19; assay type: ADME
Sequence of Cytochrome P450 2C19 (P33261 whole entry): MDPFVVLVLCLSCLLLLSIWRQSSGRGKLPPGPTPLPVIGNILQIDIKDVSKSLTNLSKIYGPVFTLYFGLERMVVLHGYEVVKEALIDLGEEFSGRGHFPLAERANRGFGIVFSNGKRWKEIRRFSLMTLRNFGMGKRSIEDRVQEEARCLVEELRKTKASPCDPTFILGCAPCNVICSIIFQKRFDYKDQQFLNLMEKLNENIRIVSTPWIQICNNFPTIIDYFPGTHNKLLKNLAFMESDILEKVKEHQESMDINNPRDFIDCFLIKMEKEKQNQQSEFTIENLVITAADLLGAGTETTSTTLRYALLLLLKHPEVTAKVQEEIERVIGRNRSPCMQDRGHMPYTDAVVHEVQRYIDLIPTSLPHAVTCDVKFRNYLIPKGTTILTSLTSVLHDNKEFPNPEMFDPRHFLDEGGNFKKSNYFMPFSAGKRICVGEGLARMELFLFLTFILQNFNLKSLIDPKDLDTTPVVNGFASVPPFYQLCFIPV

Cytochrome P450 3A5 [10] = target: T4, Cytochrome P450 3A5 (Homo sapiens, UniProt P20815); assay: (§4) Inhibition of recombinant human CYP3A5 using testosterone as substrate; assay type: ADME
T4 sequence (P20815 whole entry): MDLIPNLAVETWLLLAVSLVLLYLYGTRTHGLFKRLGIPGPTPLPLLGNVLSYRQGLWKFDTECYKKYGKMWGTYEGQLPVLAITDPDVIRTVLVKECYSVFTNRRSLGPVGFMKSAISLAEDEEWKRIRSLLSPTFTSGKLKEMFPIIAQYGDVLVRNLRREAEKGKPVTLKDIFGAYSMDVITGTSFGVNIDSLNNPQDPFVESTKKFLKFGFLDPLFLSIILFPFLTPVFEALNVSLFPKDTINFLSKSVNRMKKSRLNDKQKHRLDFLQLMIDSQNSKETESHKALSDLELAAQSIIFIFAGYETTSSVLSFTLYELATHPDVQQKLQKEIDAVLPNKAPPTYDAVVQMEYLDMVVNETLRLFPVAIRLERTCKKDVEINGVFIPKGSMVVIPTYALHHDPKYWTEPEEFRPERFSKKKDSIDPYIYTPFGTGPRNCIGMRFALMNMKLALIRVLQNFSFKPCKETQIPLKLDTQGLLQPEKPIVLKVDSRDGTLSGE

Cytochrome P450 1A2 [11] = target: T1, Cytochrome P450 1A2; assay: as §1; assay type: ADME; remark: listed apart in the source
Cytochrome P450 2A6 [12] = target: T2, Cytochrome P450 2A6; assay: as §2; assay type: ADME; remark: listed apart in the source
Cytochrome P450 2D6 = Cytochrome P450 2D6 (Homo sapiens, UniProt P10635); assay: Inhibition of recombinant human CYP2D6; assay type: ADME
Sequence of Cytochrome P450 2D6 (P10635 whole entry): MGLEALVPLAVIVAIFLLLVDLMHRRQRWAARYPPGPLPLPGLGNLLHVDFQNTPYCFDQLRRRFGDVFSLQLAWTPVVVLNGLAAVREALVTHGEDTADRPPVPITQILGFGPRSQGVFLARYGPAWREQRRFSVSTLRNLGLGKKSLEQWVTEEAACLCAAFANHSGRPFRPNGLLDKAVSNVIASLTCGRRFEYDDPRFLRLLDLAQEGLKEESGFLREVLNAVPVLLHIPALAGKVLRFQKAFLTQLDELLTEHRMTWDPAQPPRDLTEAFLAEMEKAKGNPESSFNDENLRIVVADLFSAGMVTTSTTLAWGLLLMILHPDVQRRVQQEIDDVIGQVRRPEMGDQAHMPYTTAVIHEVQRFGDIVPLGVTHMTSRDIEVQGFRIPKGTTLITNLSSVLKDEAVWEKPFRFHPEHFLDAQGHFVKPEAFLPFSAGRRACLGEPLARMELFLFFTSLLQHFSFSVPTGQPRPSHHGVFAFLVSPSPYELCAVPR

Cytochrome P450 3A4 [13] = target: T5, Cytochrome P450 3A4 (Homo sapiens, UniProt P08684); assay: Inhibition of recombinant human CYP3A4 using testosterone as substrate; assay type: ADME
T5 sequence (P08684 whole entry): as the sequence (P08684 whole entry) above

Cytochrome P450 3A5 [14] = target: T4, Cytochrome P450 3A5; assay: as §4; assay type: ADME; remark: listed apart in the source
Cytochrome P450 2B6 [15] = target: T3, Cytochrome P450 2B6; assay: as §3; assay type: ADME; remark: listed apart in the source
Cytochrome P450 2E1 = Cytochrome P450 2E1 (Homo sapiens, UniProt P05181); assay: Inhibition of recombinant human CYP2E1; assay type: ADME
Sequence of Cytochrome P450 2E1 (P05181 whole entry): as the sequence (P05181 whole entry) above

Cytochrome P450 3A4 [16] = target: T5, Cytochrome P450 3A4; assay: Inhibition of recombinant human CYP3A4 using midazolam as substrate; assay type: ADME
[17] = Toxicity in male Sprague-Dawley rat during 3-month repeated dose toxicology study; details: in vivo
[18] = Toxicity in female Sprague-Dawley rat during 3-month repeated dose toxicology study; details: in vivo
[19] = AUC in T2D patient; assay type: ADME; details: human, in vivo
Mus musculus = assay: Antidiabetic activity in ob/ob mouse assessed as reduction in decrease in HbA1c level at 10 mg/kg, po dosed once every three days for 31 day relative to control; assay type: functional; parameters: scale not given: the % may be the effect or the level left

Structure (SMILES): CS(=O)(=O)n1cc2c(n1)CN([C@@H]1C[C@H](N)[C@@H](c3cc(F)ccc3F)O[C@@H]1C(F)(F)F)C2 [COFROGLIPTIN]
- clearance [1]: 2.57 mL/min/kg
- AUC(0-t) [2]: 7900 ng·h/mL
- half-life [3]: 1540 min
- bioavailability [4]: 62.2%
- inhibition [5]: Dose-dependent effect
- inhibition in vivo at 10 mg/kg (Rhesus monkey): > 80%
- IC50 [6]: > 30 µM
- remaining at 0.5 h (CYP2C9): > 95%
- remaining at 0.5 h (CYP2E1): > 95%
- remaining at 0.5 h (CYP3A4): > 95%
- IC50 (Cytochrome P450 1A2 [7]): > 100 µM
- IC50 (Cytochrome P450 2A6 [8]): > 100 µM
- IC50 (Cytochrome P450 2B6 [9]): > 100 µM
- IC50 (Cytochrome P450 2C9): > 100 µM
- IC50 (Cytochrome P450 2C19): > 100 µM
- IC50 (Cytochrome P450 3A5 [10]): > 100 µM
- IC50 (Cytochrome P450 1A2 [11]): > 100 µM
- IC50 (Cytochrome P450 2A6 [12]): > 100 µM
- IC50 (Cytochrome P450 2D6): > 100 µM
- IC50 (Cytochrome P450 3A4 [13]): > 100 µM
- IC50 (Cytochrome P450 3A5 [14]): > 100 µM
- IC50 (Cytochrome P450 2B6 [15]): > 100 µM
- IC50 (Cytochrome P450 2E1): > 100 µM
- IC50 (Cytochrome P450 3A4 [16]): 45.8 µM
- NOAEL at 3 month [17]: 300 mg/kg
- NOAEL at 3 month [18]: 100 mg/kg
- AUC [19]: 34900 ng·h/mL
- Activity (Mus musculus): 16.2%
